Eight molecules from ChEMBL document CHEMBL5465560, “Selectivity Literature for EUbOPEN Chemogenomic Library” (2024) can be followed below.

The target in experiment [1] is Glycogen synthase kinase-3 alpha (Homo sapiens, UniProt P49840). The experiment in a line: Selectivity interaction (KinomeScan (DiscoverX)) EUB0000666a GSK3A. The settings on record: at 10 µM.
Experiment [2] addresses Tyrosine-protein kinase Blk (Homo sapiens) (UniProt P51451). The experiment in a line: Selectivity interaction (KinomeScan (DiscoverX)) EUB0000666a BLK. The settings on record: at 10 µM.
Experiment [3] addresses NT-3 growth factor receptor (Homo sapiens, UniProt Q16288). Put plainly: Selectivity interaction (KinomeScan (DiscoverX)) EUB0000655a NTRK3. The settings on record: at 10 µM.
In experiment [4] the target is T1, Serine/threonine-protein kinase tousled-like 1 (Homo sapiens) (UniProt Q9UKI8).
T1 sequence (whole entry): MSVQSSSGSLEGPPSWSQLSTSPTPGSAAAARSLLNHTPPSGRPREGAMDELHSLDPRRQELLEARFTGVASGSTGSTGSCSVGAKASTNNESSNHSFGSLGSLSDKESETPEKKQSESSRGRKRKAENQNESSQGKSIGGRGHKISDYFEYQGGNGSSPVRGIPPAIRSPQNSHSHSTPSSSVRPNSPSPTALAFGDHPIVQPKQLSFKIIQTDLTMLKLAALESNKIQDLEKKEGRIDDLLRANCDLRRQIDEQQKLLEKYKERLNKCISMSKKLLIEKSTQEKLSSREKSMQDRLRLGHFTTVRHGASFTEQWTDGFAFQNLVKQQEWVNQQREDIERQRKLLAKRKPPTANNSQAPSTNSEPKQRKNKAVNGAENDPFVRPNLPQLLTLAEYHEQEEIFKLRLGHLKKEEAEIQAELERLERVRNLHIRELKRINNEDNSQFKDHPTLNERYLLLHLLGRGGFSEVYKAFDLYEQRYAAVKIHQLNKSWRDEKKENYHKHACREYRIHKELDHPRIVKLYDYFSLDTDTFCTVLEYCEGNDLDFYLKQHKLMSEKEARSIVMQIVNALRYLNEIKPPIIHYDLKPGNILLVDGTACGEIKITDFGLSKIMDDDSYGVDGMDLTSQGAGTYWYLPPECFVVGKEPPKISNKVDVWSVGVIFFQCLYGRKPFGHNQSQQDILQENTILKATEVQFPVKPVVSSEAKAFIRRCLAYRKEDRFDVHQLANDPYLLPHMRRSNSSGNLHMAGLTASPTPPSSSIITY
The experiment in a line: Selectivity interaction (KinomeScan (DiscoverX)) EUB0001079a TLK1. Particulars: at 1 µM.

Experiment [5] addresses Ribosomal protein S6 kinase alpha-1 (Homo sapiens, UniProt Q15418). Put plainly: Selectivity interaction (ActivX KiNativ screen (ex vivo kinase selectivity in human PBMCs)) EUB0001619a RPS6KA1. In kind it is cell-based. Particulars: PBMC, at 1 µM.
Experiment [6] has as its target T2, Serine/threonine-protein kinase ULK1 (Homo sapiens) (UniProt O75385).
T2 sequence (whole entry): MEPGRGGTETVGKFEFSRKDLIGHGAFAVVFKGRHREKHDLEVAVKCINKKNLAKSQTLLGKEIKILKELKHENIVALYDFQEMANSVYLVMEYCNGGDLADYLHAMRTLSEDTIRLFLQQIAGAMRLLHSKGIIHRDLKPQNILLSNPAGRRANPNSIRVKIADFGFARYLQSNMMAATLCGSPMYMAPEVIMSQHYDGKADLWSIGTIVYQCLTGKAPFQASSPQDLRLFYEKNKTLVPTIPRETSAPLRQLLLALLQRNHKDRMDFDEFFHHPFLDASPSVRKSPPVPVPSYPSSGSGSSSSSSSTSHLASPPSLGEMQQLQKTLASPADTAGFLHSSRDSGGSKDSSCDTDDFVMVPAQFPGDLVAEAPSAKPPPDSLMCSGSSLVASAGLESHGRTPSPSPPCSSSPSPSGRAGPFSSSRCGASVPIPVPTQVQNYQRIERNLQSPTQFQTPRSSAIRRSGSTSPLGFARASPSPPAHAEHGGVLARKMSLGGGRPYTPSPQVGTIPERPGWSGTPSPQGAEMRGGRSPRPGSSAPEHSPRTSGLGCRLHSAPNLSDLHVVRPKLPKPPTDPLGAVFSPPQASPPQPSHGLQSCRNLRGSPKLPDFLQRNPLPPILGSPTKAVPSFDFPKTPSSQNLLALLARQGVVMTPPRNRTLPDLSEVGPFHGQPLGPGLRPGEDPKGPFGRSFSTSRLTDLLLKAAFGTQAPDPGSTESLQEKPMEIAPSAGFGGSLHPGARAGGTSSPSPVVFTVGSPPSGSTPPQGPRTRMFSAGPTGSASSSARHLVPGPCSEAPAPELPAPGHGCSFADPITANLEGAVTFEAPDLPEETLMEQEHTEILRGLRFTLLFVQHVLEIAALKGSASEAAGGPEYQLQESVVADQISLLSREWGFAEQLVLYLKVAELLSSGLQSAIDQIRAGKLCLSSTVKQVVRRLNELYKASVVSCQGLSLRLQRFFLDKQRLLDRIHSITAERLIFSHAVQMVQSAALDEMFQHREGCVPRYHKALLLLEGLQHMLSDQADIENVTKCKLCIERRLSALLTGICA
The experiment in a line: Selectivity interaction (ActivX KiNativ screen (kinase selectivity in THP-1 cell lysates)) EUB0000639a ULK1. In kind it is subcellular. Particulars: lysate, at 0.04 µM.

The target of experiment [7] is Vascular endothelial growth factor receptor 1 (Homo sapiens) (UniProt P17948). Put plainly: Selectivity interaction (KinomeScan (DiscoverX)) EUB0000699a FLT1. Particulars: at 10 µM.
Chain of Vascular endothelial growth factor receptor 1 (Homo sapiens) (P17948 whole entry): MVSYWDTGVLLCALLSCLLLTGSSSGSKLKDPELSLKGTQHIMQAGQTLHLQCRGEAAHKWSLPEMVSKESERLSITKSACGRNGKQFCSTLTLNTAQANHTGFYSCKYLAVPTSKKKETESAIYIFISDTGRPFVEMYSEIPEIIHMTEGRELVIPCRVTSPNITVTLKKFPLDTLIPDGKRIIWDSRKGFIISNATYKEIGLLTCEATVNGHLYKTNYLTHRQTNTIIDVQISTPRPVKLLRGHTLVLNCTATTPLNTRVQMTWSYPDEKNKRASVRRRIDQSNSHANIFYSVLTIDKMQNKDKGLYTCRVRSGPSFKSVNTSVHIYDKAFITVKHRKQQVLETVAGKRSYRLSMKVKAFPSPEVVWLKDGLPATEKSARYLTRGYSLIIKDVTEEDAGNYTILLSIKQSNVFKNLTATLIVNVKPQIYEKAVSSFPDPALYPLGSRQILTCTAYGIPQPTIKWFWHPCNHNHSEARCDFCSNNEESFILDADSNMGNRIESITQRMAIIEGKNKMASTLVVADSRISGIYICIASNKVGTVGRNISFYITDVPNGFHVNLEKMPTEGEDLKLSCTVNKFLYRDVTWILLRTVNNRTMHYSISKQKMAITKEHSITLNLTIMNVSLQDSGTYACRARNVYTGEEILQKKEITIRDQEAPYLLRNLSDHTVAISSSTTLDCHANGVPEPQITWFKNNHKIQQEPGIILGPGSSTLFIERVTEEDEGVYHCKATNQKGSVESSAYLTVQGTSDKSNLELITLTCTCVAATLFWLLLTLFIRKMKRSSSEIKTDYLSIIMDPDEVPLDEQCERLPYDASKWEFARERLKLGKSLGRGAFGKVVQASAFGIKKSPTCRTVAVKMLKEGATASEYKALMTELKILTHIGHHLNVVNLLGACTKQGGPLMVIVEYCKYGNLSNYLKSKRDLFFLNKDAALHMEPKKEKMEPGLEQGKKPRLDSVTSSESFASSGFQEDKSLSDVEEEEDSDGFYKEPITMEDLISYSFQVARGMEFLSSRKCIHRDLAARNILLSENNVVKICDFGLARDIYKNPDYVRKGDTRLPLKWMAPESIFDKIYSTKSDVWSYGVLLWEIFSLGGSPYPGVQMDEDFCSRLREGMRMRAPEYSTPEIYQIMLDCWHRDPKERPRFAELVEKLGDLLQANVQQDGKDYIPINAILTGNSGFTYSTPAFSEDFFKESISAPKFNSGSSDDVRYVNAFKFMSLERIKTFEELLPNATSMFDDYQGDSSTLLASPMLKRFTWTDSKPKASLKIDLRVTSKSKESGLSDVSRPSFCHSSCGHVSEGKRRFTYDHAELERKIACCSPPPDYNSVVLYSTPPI
For experiment [8], the target named is T3, Serine/threonine-protein kinase RIO3 (Homo sapiens) (UniProt O14730).
T3 sequence (whole entry): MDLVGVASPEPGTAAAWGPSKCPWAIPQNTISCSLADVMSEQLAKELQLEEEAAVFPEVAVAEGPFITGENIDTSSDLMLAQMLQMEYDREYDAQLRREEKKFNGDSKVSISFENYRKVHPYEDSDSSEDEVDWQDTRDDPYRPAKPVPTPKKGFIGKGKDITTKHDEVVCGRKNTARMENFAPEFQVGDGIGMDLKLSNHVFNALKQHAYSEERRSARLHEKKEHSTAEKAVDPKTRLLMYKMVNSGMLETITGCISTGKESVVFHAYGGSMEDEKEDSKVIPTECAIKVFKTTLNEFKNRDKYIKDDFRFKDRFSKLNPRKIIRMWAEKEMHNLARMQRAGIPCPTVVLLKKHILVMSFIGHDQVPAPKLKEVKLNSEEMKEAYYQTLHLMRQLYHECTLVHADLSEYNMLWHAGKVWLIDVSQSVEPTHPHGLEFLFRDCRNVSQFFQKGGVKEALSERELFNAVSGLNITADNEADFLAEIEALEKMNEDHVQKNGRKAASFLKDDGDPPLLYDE
Put plainly: Selectivity interaction (KinomeScan (DiscoverX)) EUB0000045b RIOK3.

The subject of experiment [9] is Epidermal growth factor receptor (Homo sapiens), P00533 [UNDEFINED MUTATION]. Put plainly: Selectivity interaction (KinomeScan (DiscoverX)) EUB0000045b EGFR. Particulars: at 10 µM.
Experiment [10] addresses Histone-lysine N-methyltransferase ASH1L (Homo sapiens) (UniProt Q9NR48). The experiment in a line: Selectivity interaction (Methyltransferase screen (radiometric assays, panel of 8 PRMTs, 21 protein lysine methyltransferases, 3 DNA methyltransferases, and one RNA methyltransferase)) EUB0000272b ASH1L.

Chain of Glycogen synthase kinase-3 alpha (P49840 2-483 limits assumed): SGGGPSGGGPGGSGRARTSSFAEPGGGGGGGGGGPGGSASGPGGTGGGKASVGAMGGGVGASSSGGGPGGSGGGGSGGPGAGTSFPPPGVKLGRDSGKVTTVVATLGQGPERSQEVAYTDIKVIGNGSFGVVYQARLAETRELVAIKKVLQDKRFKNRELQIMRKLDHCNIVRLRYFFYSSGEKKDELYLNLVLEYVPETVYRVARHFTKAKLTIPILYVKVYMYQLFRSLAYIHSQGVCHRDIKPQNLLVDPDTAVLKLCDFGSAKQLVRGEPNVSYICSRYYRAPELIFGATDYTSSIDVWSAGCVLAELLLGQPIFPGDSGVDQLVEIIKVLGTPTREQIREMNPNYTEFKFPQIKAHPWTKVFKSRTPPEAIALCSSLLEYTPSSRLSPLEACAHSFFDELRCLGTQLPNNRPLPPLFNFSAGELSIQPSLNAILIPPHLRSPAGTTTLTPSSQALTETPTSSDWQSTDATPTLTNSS
Chain of Tyrosine-protein kinase Blk (Homo sapiens) (P51451 2-505 limits assumed): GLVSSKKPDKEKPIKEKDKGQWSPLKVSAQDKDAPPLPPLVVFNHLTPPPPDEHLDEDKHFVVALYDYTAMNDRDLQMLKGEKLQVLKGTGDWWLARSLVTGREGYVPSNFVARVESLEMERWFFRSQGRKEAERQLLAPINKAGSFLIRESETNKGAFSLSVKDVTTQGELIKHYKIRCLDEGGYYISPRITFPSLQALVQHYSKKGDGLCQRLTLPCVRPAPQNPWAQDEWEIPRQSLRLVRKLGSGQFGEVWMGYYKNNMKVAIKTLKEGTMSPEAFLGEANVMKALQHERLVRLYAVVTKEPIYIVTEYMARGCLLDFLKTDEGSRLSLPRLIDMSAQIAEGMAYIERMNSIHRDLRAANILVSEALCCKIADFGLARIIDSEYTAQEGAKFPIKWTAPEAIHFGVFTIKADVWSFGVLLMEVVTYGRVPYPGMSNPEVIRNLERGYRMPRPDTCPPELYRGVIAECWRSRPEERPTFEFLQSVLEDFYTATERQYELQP
Chain of Epidermal growth factor receptor (Homo sapiens), P00533 [UNDEFINED MUTATION] (P00533 whole entry, looked up, change not shown): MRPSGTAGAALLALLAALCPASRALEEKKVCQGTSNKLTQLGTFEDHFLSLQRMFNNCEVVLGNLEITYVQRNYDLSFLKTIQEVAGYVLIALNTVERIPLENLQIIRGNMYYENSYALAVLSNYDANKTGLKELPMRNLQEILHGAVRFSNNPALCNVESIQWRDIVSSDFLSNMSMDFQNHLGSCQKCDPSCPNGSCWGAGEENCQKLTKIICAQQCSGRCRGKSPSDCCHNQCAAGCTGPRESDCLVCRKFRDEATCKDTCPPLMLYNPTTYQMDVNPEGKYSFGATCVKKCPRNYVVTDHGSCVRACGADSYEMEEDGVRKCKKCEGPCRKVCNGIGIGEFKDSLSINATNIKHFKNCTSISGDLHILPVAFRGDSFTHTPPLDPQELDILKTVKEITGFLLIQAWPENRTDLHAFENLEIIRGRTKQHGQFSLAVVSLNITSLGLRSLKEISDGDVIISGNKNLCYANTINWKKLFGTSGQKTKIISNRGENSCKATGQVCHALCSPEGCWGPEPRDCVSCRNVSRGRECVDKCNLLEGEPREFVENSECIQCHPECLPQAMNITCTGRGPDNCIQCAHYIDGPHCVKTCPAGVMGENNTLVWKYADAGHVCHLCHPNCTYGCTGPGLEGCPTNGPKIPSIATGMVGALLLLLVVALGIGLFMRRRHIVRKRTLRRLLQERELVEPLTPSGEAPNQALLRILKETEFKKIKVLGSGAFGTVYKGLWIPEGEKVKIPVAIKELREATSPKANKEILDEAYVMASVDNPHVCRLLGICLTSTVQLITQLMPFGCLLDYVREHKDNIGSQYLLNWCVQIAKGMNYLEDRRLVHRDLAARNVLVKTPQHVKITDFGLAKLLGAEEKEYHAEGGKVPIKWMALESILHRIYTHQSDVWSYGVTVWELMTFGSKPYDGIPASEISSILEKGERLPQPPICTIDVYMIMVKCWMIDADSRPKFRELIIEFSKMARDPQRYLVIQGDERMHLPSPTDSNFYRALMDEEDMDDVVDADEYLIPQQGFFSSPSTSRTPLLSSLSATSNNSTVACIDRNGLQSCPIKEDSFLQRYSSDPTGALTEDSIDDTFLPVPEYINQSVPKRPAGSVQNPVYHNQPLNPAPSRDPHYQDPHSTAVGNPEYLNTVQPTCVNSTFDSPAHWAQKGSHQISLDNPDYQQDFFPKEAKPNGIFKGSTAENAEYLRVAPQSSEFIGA
Chain of NT-3 growth factor receptor (Q16288 32-839 limits assumed): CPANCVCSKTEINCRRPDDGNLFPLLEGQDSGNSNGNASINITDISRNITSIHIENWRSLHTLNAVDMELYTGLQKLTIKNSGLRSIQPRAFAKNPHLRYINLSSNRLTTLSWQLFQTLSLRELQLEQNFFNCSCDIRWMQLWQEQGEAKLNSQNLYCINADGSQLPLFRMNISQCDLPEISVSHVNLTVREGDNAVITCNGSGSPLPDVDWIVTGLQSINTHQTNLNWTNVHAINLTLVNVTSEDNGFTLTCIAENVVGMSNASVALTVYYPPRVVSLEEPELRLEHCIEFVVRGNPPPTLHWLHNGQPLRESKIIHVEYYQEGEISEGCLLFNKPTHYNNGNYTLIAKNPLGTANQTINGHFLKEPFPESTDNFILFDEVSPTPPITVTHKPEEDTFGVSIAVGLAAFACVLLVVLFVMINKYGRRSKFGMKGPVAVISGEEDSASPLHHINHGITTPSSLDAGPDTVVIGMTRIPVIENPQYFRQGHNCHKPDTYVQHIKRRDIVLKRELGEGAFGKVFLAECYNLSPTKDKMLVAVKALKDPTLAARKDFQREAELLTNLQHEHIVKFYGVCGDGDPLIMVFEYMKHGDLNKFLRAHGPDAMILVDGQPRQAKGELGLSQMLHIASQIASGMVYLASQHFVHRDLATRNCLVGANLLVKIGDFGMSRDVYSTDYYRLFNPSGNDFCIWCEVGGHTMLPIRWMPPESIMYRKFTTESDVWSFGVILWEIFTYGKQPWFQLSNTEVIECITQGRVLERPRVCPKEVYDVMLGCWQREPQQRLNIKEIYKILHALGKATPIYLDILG
Chain of Ribosomal protein S6 kinase alpha-1 (Q15418 whole entry): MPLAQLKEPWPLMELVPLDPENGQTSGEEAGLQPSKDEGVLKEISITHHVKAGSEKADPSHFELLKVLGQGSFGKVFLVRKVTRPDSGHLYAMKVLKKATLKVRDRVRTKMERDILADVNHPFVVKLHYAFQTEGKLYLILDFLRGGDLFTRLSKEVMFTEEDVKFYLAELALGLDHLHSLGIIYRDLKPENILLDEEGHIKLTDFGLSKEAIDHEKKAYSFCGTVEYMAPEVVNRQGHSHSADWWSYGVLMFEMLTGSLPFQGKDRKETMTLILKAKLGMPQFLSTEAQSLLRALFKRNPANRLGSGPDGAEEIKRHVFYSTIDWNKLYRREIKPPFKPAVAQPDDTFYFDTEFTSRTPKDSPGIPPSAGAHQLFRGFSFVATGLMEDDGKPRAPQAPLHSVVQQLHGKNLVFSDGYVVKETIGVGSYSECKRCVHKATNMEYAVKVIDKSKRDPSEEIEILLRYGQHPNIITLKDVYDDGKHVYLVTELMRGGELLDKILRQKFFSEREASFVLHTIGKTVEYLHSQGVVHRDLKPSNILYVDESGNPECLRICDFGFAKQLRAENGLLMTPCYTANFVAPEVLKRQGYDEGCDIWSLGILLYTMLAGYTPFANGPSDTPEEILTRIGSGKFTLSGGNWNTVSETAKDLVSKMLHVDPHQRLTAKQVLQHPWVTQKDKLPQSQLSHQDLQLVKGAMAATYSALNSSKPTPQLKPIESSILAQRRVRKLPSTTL

Take `O=C(NOC[C@H](O)CO)c1ccc(F)c(F)c1Nc1ccc(I)cc1F`: the % of control worked out at 90% in experiment [1] and 83% in [2].
In experiment [3], `CN(C)CCOc1ccc(-c2nc(-c3ccncc3)c(-c3ccc4c(c3)CC/C4=N\O)[nH]2)cc1` registered a % of control of 45%.
`Nc1cnc(N2CCc3cc(S(=O)(=O)Nc4c(F)cc(Cl)cc4F)cc(N4CCCC4=O)c32)nc1` [TP-020n] yielded a % of control in experiment [4] of 100%.
For `N#Cc1cccc(-c2c[nH]c3ncnc(N4CCOCC4)c23)c1`, the % of inhibition in experiment [5] amounted to 33%.
Take `CC[C@@H]1[C@H](F)C(=O)N[C@@H]1COc1nccc2cc(C(N)=O)c(OC)cc12` [ZIMLOVISERTIB]: in experiment [6], the % of inhibition was -12.7%.
`CCN(CC)CCCCNc1ncc2cc(-c3cc(OC)cc(OC)c3)c(NC(=O)NC(C)(C)C)nc2n1` displayed a % of control in [7] of 8%.
With `C=CC(=O)Nc1cc(-n2c(=O)ccc3cnc4ccc(-c5ccc(NS(C)(=O)=O)cc5)cc4c32)ccc1C`, the % of control in experiment [8] (at 1 µM) turned out to be 55%; in [8] (at 10 µM), 60%; in experiment [9], 75%.
Consider `Cc1cc(C)cc([C@H]2c3cc(C)ccc3NC(=O)CN2C(=O)c2ccc(Br)s2)c1`, for which the % of activity is 102% in experiment [10] (at 1 µM) and 99.7% in [10] (at 10 µM).
